Measured values as given in PMC3650853 (Journal of medicinal chemistry, 2010).

Key:
rats [1] = assay: Hypothermia test, core body temperature over 6 hours after injection; format: in vivo; details: rat, 0.1 mg/kg s.c.
rCB1 receptor = rCB1 receptor (Rattus norvegicus, UniProt P20272); format: cell-based
rats [2] = assay: Antinociception, tail-flick procedure over 6 hours after injection; details: rat
rat CB1 (rCB1) = rat CB1 (rCB1) (Rattus norvegicus, UniProt P20272); format: binding
mouse CB2 (mCB2) = mouse CB2 (mCB2) (Mus musculus, UniProt P47936); assay: Radioligand binding, displacement of [3H]CP-55,940 from mouse spleen membranes; details: for lower affinity for CB2 compared to 6b: mCB2 Ki relative to 6b
Sequence of mouse CB2 (mCB2) (P47936 whole entry): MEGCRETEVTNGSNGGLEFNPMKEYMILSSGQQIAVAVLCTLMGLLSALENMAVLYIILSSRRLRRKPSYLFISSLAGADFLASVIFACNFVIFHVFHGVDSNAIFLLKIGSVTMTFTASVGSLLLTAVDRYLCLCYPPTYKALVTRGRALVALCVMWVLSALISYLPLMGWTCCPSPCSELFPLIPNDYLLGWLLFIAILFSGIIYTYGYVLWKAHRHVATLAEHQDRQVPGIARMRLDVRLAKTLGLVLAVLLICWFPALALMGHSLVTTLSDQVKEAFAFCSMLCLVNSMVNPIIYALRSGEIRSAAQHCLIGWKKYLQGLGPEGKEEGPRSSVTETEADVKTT

[3] = six-atom versus seven-atom ω-bromo side chain

Sequence of rat CB1 (rCB1) (P20272 whole entry): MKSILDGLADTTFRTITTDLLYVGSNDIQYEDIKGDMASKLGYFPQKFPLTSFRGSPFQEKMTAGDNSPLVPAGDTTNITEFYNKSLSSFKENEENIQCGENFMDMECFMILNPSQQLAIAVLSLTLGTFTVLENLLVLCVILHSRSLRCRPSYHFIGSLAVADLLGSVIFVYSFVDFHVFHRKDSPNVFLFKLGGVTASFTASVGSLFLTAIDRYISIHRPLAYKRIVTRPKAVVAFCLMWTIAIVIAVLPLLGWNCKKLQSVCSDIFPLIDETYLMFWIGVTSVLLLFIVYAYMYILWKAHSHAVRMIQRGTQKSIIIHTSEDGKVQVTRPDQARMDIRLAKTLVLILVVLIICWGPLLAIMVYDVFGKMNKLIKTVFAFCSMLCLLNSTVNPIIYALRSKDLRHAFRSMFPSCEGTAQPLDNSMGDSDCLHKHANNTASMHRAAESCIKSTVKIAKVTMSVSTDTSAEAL
Sequence of rCB1 receptor (P20272 whole entry): as above

With `CCCCCCC1(c2cc(O)c3c(c2)OC(C)(C)[C@@H]2CC[C@@H](O)C[C@@H]32)CCC1` [7e-β, (6aR, 9R, 10aR)-3-(1-Hexyl-cyclobut-1-yl)-6a,7,8,9,10,10a-hexahydro-6,6-dimethyl-6H-dibenzo[b,d]pyran-1,9 diol] the “onset of drug effect (hypothermia) after injection” value (rats [1]) was 60 to 90 min, the “time of peak effects (hypothermia) after injection” value (rats [1]) was 300 min and the “reduction of core body temperature” value (rats [1]; from average baseline of 38.48±0.06°C) was “up to 4.2±0.5 °C”. For the same compound, the EC50 (rCB1 receptor) was 1.5 ± 0.3 nM, the “functional efficacy at CB1” value (rCB1 receptor; cAMP assay) was “full agonist” and the “antinociception, % of the maximum possible effect” value (“antinociception, %” below) (rats [2]; 0.1 mg/kg 7e-β after 30-min pretreatment with 1.0 mg/kg rimonabant (SR141716A)) was 85.4±5.8%. The “antinociception, %” value (rats [2]; 0.1 mg/kg 7e-β after 30-min pretreatment with 3.0 mg/kg rimonabant (SR141716A)) was 48.0±10.9%, the “antinociception, %” value (rats [2]; 0.1 mg/kg 7e-β alone, different group of animals) was 100% and the “doses with significant antinociceptive effects” value (rats [2]; s.c., tail-flick) was 0.01 to 0.3 mg/kg. The “onset of the antinociceptive effects after injection” value (rats [2]; s.c., tail-flick) was 60 to 120 min and the “time course of antinociceptive effects” value (rats [2]; s.c., tail-flick, 6 hour test period) was “generally increased over the 6 hour test period”.

`CN1CC[C@]23c4c5ccc(O)c4O[C@H]2[C@@H](O)C=C[C@H]3[C@H]1C5` [morphine, reference compound] was tested, and the “time after injection by which antinociceptive effects were decreasing” value (rats [2]; s.c., tail-flick) was 3 h, the “time of peak antinociceptive effects after injection” value (rats [2]; s.c., tail-flick) was 30 to 120 min and the “antinociceptive effects lower than 7e-β” value (rats [2]; tail-flick, relative to 7e-β) was “approximately 100 fold”.

For `CCCC/C=C\C1(c2cc(O)c3c(c2)OC(C)(C)[C@@H]2CCC(=O)C[C@@H]32)CCC1` [6d, (6aR, 10aR)-3-[1-(1,2-cis-Hexen-1-yl)-cyclobut-1-yl]-6,6a,7,8,10,10a-hexahydro-1-hydroxy-6,6-dimethyl-9H-dibenzo[b,d]pyran-9-one], the “selectivity for CB1 over CB2” value (rat CB1 (rCB1); from Ki rCB1 and mCB2, as stated in text) was 11 fold.

In the case of `CCCCCCC1(c2cc(O)c3c(c2)OC(C)(C)[C@@H]2CCC(=O)C[C@@H]32)SCCS1` [6c, (6aR, 10aR)-3-(2-Hexyl-1,3-dithiolan-2-yl)-6,6a,7,8,10,10a-hexahydro-1-hydroxy-6,6-dimethyl-9H-dibenzo[b,d]pyran-9-one], the “lower affinity for CB2 compared to 6b” value (mouse CB2 (mCB2)) is reported as 44 fold and the “lower affinity for CB1 compared to 6b” value (rat CB1 (rCB1); rCB1 Ki relative to 6b) is reported as 4 fold.

With `CCCC/C=C\C1(c2cc(O)c3c(c2)OC(C)(C)[C@@H]2CCC(=O)C[C@@H]32)CCCC1` [6a, (6aR, 10aR)-3-[1-(1,2-cis-Hexen-1-yl)-cyclopent-1-yl]-6,6a,7,8,10,10a-hexahydro-1-hydroxy-6,6-dimethyl-9H-dibenzo[b,d]pyran-9-one] the “lower affinity for CB2 compared to 6b” value (mouse CB2 (mCB2)) was 5 fold.

With `CC1(C)Oc2cc(C3(CCCCBr)CCCC3)cc(O)c2[C@@H]2CC(=O)CC[C@H]21` [15a, (6aR,10aR)-3-[1-(4-Bromobutyl)cyclopentyl]-6,6a,7,8,10,10a-hexahydro-1-hydroxy-6,6-dimethyl-9H-dibenzo[b,d]pyran-9-one] the “reduction in affinity for CB2” value (mouse CB2 (mCB2); [3]) was 5 fold and the “reduction in affinity for CB1” value (rat CB1 (rCB1); [3]) was 13 fold.
